Test results published in ChEMBL document CHEMBL4613209, “Quinolone hybrids and their anti-cancer activities: An overview” (Eur J Med Chem, 2019).
Values after ≈ are worked out from the molar mass of the structure shown. Values belong to the molecule of their own block, whether it stands above or below them.

Experiments:
PANC-1 = assay: Antiproliferative activity against human PANC1 cells after 48 hrs by MTT assay; assay type: functional, cell-based; conditions: PANC-1, 48 h
HCT-116 = assay: Antiproliferative activity against human HCT116 cells after 48 hrs by MTT assay; assay type: functional, cell-based; conditions: HCT-116, 48 h
HeLa [1] = assay: Antiproliferative activity against human HeLa cells after 48 hrs by MTT assay; assay type: functional, cell-based
A549 [2] = assay: Antiproliferative activity against human A549 cells after 48 hrs by MTT assay; assay type: functional, cell-based; conditions: A549, 48 h
SiHa = assay: Growth inhibition of human SiHa cells after 48 hrs by SRB assay; assay type: functional
MDA-MB-231 = assay: Growth inhibition of human MDA-MB-231 cells after 48 hrs by SRB assay; assay type: functional; conditions: MDA-MB-231, 48 h
HepG2 [3] = assay: Anticancer activity against human HepG2 cells by MTT assay; assay type: functional, cell-based
HT-29 [4] = assay: Anticancer activity against human HT-29 cells by MTT assay; assay type: functional, cell-based
HL-60 = assay: Anticancer activity against human HL60 cells by MTT assay; assay type: functional, cell-based
A549 [5] = assay: Cytotoxicity against human A549 cells assessed as reduction in cell viability; assay type: functional, cell-based
HT-29 [6] = assay: Cytotoxicity against human HT-29 cells assessed as reduction in cell viability; assay type: functional, cell-based
P388 [7] = assay: Cytotoxicity against mouse P388 cells assessed as reduction in cell viability; assay type: functional, cell-based
P388 [8] = assay: Cytotoxicity against doxorubicin resistant mouse P388 cells assessed as reduction in cell viability; assay type: functional, cell-based
B16-F10 [9] = assay: Cytotoxicity against mouse B16F10 cells assessed as reduction in cell viability; assay type: functional, cell-based
A549 [10] = assay: Anticancer activity against human A549 cells; assay type: functional, cell-based
HT-29 [11] = assay: Anticancer activity against human HT-29 cells; assay type: functional, cell-based
HCT-8 = assay: Anticancer activity against human HCT8 cells; assay type: functional, cell-based
MCF7 [12] = assay: Anticancer activity against human MCF7 cells; assay type: functional, cell-based
B16-F10 [13] = assay: Anticancer activity against mouse B16F10 cells; assay type: functional, cell-based
[14] = test system: Lewis lung carcinoma cell line; assay: Anticancer activity against mouse LLC cells; assay type: functional, cell-based
P388 [15] = assay: Anticancer activity against mouse P388 cells; assay type: functional, cell-based
P388 [16] = assay: Anticancer activity against doxorubicin resistant mouse P388 cells; assay type: functional, cell-based
K562 = assay: Anticancer activity against human K562 cells; assay type: functional, cell-based
A549 [17] = assay: Antiproliferative activity against human A549 cells by CCK8 assay; assay type: functional, cell-based
HepG2 [18] = assay: Antiproliferative activity against human HepG2 cells by CCK8 assay; assay type: functional, cell-based
MCF7 [19] = assay: Antiproliferative activity against human MCF7 cells by CCK8 assay; assay type: functional, cell-based
PC-3 = assay: Antiproliferative activity against human PC3 cells by CCK8 assay; assay type: functional, cell-based
HeLa [20] = assay: Antiproliferative activity against human HeLa cells by CCK8 assay; assay type: functional, cell-based
MCF-10A = assay: Antiproliferative activity against human MCF10A cells by CCK8 assay; assay type: cell-based
Histone deacetylase = assay: Inhibition of HDAC (unknown origin); assay type: protein assay, Homo sapiens
Tubulin = assay: Inhibition of tubulin polymerization (unknown origin); assay type: protein-complex assay, Homo sapiens

GI50 (MDA-MB-231): ≤ 0.1 µM
SMILES: CCn1cc(C(=O)O)c(=O)c2cnc(N3CCN(C(=O)CCSc4nnnn4-c4ccc(F)c(F)c4F)CC3)nc21
GI50 (SiHa): ≤ 0.1 µM

IC50 (A549 [10]): 0.03 to 0.49 µM
IC50 (HT-29 [11]): 0.03 to 0.49 µM
IC50 (HCT-8): 0.03 to 0.49 µM
IC50 (MCF7 [12]): 0.03 to 0.49 µM
IC50 (B16-F10 [13]): 0.03 to 0.49 µM
IC50 [14]: 0.03 to 0.49 µM
IC50 (P388 [15]): 0.03 to 0.49 µM
IC50 (P388 [16]): 0.03 to 0.49 µM
SMILES: Cc1ccccc1NC1CCN(C2C(F)=Cc3c4n(cc(C(=O)O)c3=O)-c3ccccc3OC42)C1 (stereo unspecified)
IC50 (A549 [5]): 0.011 to 0.59 mg/L (≈ 0.0232 to 1.25 µM)
IC50 (HT-29 [6]): 0.011 to 0.59 mg/L (≈ 0.0232 to 1.25 µM)
IC50 (P388 [7]): 0.011 to 0.59 mg/L (≈ 0.0232 to 1.25 µM)
IC50 (P388 [8]): 0.011 to 0.59 mg/L (≈ 0.0232 to 1.25 µM)
IC50 (B16-F10 [9]): 0.011 to 0.59 mg/L (≈ 0.0232 to 1.25 µM)

IC50 (K562): 64.1 to 198 µM
SMILES: O=C(O)c1cn([C@@H]2O[C@H](CO)[C@@H](O)[C@H]2O)c2ccc(Oc3ccccc3)cc2c1=O

IC50 (A549 [10]): 0.03 to 0.49 µM
IC50 (HT-29 [11]): 0.03 to 0.49 µM
IC50 (HCT-8): 0.03 to 0.49 µM
IC50 (MCF7 [12]): 0.03 to 0.49 µM
IC50 (B16-F10 [13]): 0.03 to 0.49 µM
IC50 [14]: 0.03 to 0.49 µM
IC50 (P388 [15]): 0.03 to 0.49 µM
IC50 (P388 [16]): 0.03 to 0.49 µM
SMILES: COc1ccc(NC2CCN(C3C(F)=Cc4c5n(cc(C(=O)O)c4=O)-c4ccccc4OC53)C2)cc1 (stereo unspecified)
IC50 (A549 [5]): 0.011 to 0.59 mg/L (≈ 0.0225 to 1.21 µM)
IC50 (HT-29 [6]): 0.011 to 0.59 mg/L (≈ 0.0225 to 1.21 µM)
IC50 (P388 [7]): 0.011 to 0.59 mg/L (≈ 0.0225 to 1.21 µM)
IC50 (P388 [8]): 0.011 to 0.59 mg/L (≈ 0.0225 to 1.21 µM)
IC50 (B16-F10 [9]): 0.011 to 0.59 mg/L (≈ 0.0225 to 1.21 µM)

IC50 (K562): 64.1 µM
SMILES: NC(=O)c1cn([C@@H]2O[C@H](CO)[C@@H](O)[C@H]2O)c2ccc(Nc3ccccc3)cc2c1=O

GI50 (MDA-MB-231): ≤ 0.1 µM
SMILES: O=C(O)c1cn(C2CC2)c2cc(N3CCN(C(=O)CCSc4nnnn4-c4ccc(Br)cc4)CC3)c(F)cc2c1=O
GI50 (SiHa): ≤ 0.1 µM

More lines, now with the values behind:

SMILES: CCCN(CCC)Cc1cn(-c2cc3c(cc2F)c(=O)c(C(=O)NO)cn3C2CC2)nn1
IC50 (PANC-1): > 10 µM
IC50 (HCT-116): > 10 µM
IC50 (HeLa [1]): > 10 µM
IC50 (A549 [2]): > 10 µM

SMILES: CCOC(=O)c1cn(Cc2cn(-c3ccc(C)cc3)nn2)c2ccc(Cl)cc2c1=O
IC50 (HepG2 [3]): 13.1 to 88.4 µM
IC50 (HT-29 [4]): 13.1 to 88.4 µM
IC50 (HL-60): 13.1 to 88.4 µM

SMILES: CC(C)NCc1cn(-c2cc3c(cc2F)c(=O)c(C(=O)NO)cn3C2CC2)nn1
IC50 (PANC-1): > 10 µM
IC50 (HCT-116): > 10 µM
IC50 (HeLa [1]): > 10 µM
IC50 (A549 [2]): > 10 µM

SMILES: C[C@H]1COc2c(N3CCN(C)CC3)c(F)cc3c(=O)c(C(=O)NCc4cn(CCCCCC(=O)NO)nn4)cn1c23
IC50 (A549 [17]): 0.3 to 12.8 µM
IC50 (HepG2 [18]): 0.3 to 12.8 µM
IC50 (MCF7 [19]): 0.3 to 12.8 µM
IC50 (PC-3): 0.3 to 12.8 µM
IC50 (HeLa [20]): 0.3 to 12.8 µM
IC50 (MCF-10A): > 100 µM
IC50 (Histone deacetylase): 0.021 to 0.85 µM
IC50 (Tubulin): 1.79 to 6.36 µM
